pIC50: −log10 of the molar value.
Legend:
human telomerase [1] = assay: TRAP assay of telomerase activity in HME50-5 cell extracts preincubated with PNA or PS oligomer; type: biochemical; conditions: for IC50: HME50-5 cell extract
Experimental: Cells were derived from a human immortal primary breast epithelial cell line (HME50-5) that expresses telomerase at high levels. Cell extracts were obtained by resuspending a 100,000 cell pellet into 200 μl of lysis buffer (0.5% 3-[3-cholamidopropyl-dimethylammonio]-1-propane-sulfonate (CHAPS), 10 mM Tris-HCl, pH 7.5, 1 mM ethylenebis(oxyethylene-nitrilo)tetraacetic acid (EGTA), 5 mM β-mercaptoethanol, 0.1 mM 4-(2-aminoethyl)benzenesulfonyl fluoride (AEBSF), 10% glycerol). The suspension was mixed by pipetting at least three times and kept on ice for 30 minutes. The lysate was centrifuged at 16,000×g for 20 minutes at 4° C., and 160 μl of the supernatant was collected. The cells were then diluted 10-fold to obtain a 50 cell equivalent/μl stock suspension, aliquoted, frozen in liquid nitrogen, and stored at -80° C. These aliquots were utilized throughout our experiments to ensure consistency.
The tubes were transferred to a PCR thermocycler set at 94° C. for 3 minutes to melt the wax barrier, cycled 30 times (30 seconds at 95° C., 30 seconds at 55° C. and 30 seconds at 72° C.) followed by a 3 minute extension at 72° C. The samples were frozen at -80° C. and the wax barrier removed. […] Gels were fixed for 30 minutes (1:1 ethanol: water, 0.5 M NaCl, 40 mM NaOAc, pH 4.2) then exposed to a phosphorimager screen for quantitation. […] Data was processed using ImageQuant software version 3.3.
Varied concentrations of PNA were added to cell extracts containing the TS primer. Telomerase products were visualized by gel electrophoresis and the extent of inhibition was quantified by phosphorimager analysis by evaluating each lane of the gels separately. The lanes were further separated into two areas for evaluation; one for the internal amplification standard (ITAS) and the other for all telomerase products. […] This ratio was taken to indicate telomerase activity with the ratio of the positive control being assigned 100% activity. The extent of inhibition as a function of the concentration of the added PNA was plotted and these graphs were utilized to derive the IC50.
Telomerase activity was measured using the telomeric repeat amplification protocol (TRAP). Rather than measure the change in chromosome length over time, a process that requires weeks to produce definitive results and measures telomerase activity only indirectly, the TRAP assay measures the elongation of a short oligonucleotide primer (TS primer) known to act as an efficient substrate of telomerase. Cell extracts from a human immortal breast epithelial cell line, HME50-5, expressing telomerase were preincubated with PNAs to allow recognition of complementary sequences by Watson-Crick base-pairing. The TS primer was then added to initiate chain elongation by telomerase. Following elongation of the TS primer, the mixture was transferred to a thermocycler and polymerase chain reaction (PCR) was performed to amplify the products. Two potential template DNAs were present, and amplification products were primed from either an internal amplification standard (ITAS) or from the product of telomerase elongation of the TS primer. These amplification products were separated by gel electrophoresis and quantitated separately. A ratio of the amount of amplified products of telomerase activity to that derived from amplification of the ITAS standard was determined and compared to a positive control to which no PNA was added. This comparison allowed calculation of the inhibition of telomerase activity due to a given concentration of PNA.

human telomerase [2] = assay: TRAP assay of telomerase activity in permeabilized HME50-5 cells; type: cell-based; conditions: 37° C., read-out: IC50 (nM) Perm. Cells 37° C.
Experimental: To examine the ability of PNAs to inhibit telomerase activity within permeabilized cells HME50-5 cells were treated with a buffered solution containing a relatively low concentration of detergent (20 mM Tris-HCl, pH 8.3, 1.5 mM MgCl2, 68 mM KCl, 0.5% Tween 20, 1 mM EGTA, 5.0% glycerol, and 0.1 mM AEBSF). The telomerase activity in these cells was not further purified, and permeabilized cells were incubated with PNA and PS oligomers prior to assay for telomerase activity.
A further control experiment was performed to ensure that the observed. inhibition was due to PNA entry into permeabilized cells The TRAP assay was utilized to compare the level of telomerase activity retained inside permeabilized cells to activity which leaks into solution. This control was necessary to ensure that the observed inhibition was due to PNA inhibition of telomerase within cells. Permeabilized cells were centrifuged and the cell pellet and the cell-free supernatant were separately examined for telomere activity using the TRAP assay. Greater than 80% of telomerase activity remained associated with the cell pellet after this mild treatment, confirming that telomerase is largely retained inside permeabilized cells.
Telomerase activity was determined using the telomere repeat amplification protocol (TRAP) assay essentially as described (Piatyszek et al. (1995) Methods in Cell Science 17: 1) with the modification that the cellular extract was preincubated at 25° C. for 30 minutes with the PNA at the concentrations indicated. Following preincubation 3 μl of the cellular extract plus PNA was added to a PCR tube containing 46 μl of reaction buffer (20 mM Tris-HCl, pH 8.3, 1.5 MM MgCl2, 68 MM KCl, 0.05% Tween-20, 1 mM EGTA), 50 μM dNTPs, 0.1 μg TS primer (5'-[…]-3' (SEQ ID NO:23)), 5 attg ITAS template (25), 0.5 μM T4 gene 32 protein, 2 Units Taq polymerase, 4 μCi^32 P-α dCTP) above a wax barrier separating 0.1 μg of the CX, reverse primer (5'-[…]-3' (SEQ ID NO:24)), and incubated for 30 minutes to allow telomerase to elongate the TS primer. The tubes were transferred to a PCR thermocycler set at 94° C. for 3 minutes to melt the wax barrier, cycled 30 times (30 seconds at 95° C., 30 seconds at 55° C. and 30 seconds at 72° C.) followed by a 3 minute extension at 72° C. The samples were frozen at -80° C. and the wax barrier removed. The solution containing the PCR products (40 μl) was added to 3.3 μl of loading buffer and 20 μl was loaded onto a 10% non-denaturing polyacrylamide gel and separated by electrophoresis at 180 volts for 45 minutes followed by 280 volts for 1 hour and 45 minutes. Gels were fixed for 30 minutes (1:1 ethanol: water, 0.5 M NaCl, 40 mM NaOAc, pH 4.2) then exposed to a phosphorimager screen for quantitation. Phosphorimager analysis was performed utilizing a Molecular Dynamics model 425F phosphorimager. Data was processed using ImageQuant software version 3.3.
Varied concentrations of PNA were added to cell extracts containing the TS primer. Telomerase products were visualized by gel electrophoresis and the extent of inhibition was quantified by phosphorimager analysis by evaluating each lane of the gels separately. The lanes were further separated into two areas for evaluation; one for the internal amplification standard (ITAS) and the other for all telomerase products. A ratio of telomerase products to ITAS was determined and compared to a positive control in which no PNA had been added. This ratio was taken to indicate telomerase activity with the ratio of the positive control being assigned 100% activity. The extent of inhibition as a function of the concentration of the added PNA was plotted and these graphs were utilized to derive the IC50.
The potential for such interactions to interfere with the location of hTR by PNAs was evaluated by examining elongation under conditions more similar to those in vivo. PNAs were applied to HME50-5 cells that had been mildly permeabilized. […]

[3] = 25° C., 30 min preincubation, read-out: IC50 (nM) Cell Extract 25° C.
[4] = 37° C., read-out: IC50 (nM) Cell Extract 37° C.

## PS (I): complementary phosphorothioate oligonucleotide 5'-GTTAGGGTTAG-3' (all phosphorothioate, sugars by position not given here) [reference compound]
Human telomerase [1]; [3]
  IC50: 75 nM
Human telomerase [1]; [4]
  IC50: 250 nM

## PS (IV): non-complementary phosphorothioate oligonucleotide AGGATCTTCACCTAGATCCT (all phosphorothioate, sugars by position and methylation of C not given here) [reference compound]
Human telomerase [1]; [3]
  IC50: 100 nM
Human telomerase [1]; [4]
  IC50: 400 nM

## PNA (IV): complementary PNA, sequence GTTAGGGTTAG (all peptide nucleic acid (PNA))
Human telomerase [2]
  IC50: 300 nM

## PNA (VIII): complementary PNA, sequence CCCTTCTCAGTTAGGGTTAG (all peptide nucleic acid (PNA))
Human telomerase [1]; [3]
  IC50: 200 nM
Human telomerase [1]; [4]
  IC50: 300 nM
Human telomerase [2]
  IC50: 400 nM

## PS (II): complementary phosphorothioate oligonucleotide CTCAGTTAGGGTTAG (all phosphorothioate, sugars by position and methylation of C not given here) [reference compound]
Human telomerase [1]; [3]
  IC50: 100 nM
Human telomerase [1]; [4]
  IC50: 700 nM

## PNA (V): complementary PNA, sequence AGTTAGGGTTAG (all peptide nucleic acid (PNA))
Human telomerase [1]; [3]
  IC50: 10 nM
Human telomerase [1]; [4]
  IC50: 75 nM
Human telomerase [2]
  IC50: 370 nM

## PNA (XV): non-complementary PNA, sequence TGTAAGGAACTAG (all peptide nucleic acid (PNA)) [reference compound]
Human telomerase [1]; [3]
  IC50: > 33000 nM
Human telomerase [1]; [4]
  IC50: > 33000 nM
Human telomerase [1]; cell extract
  inhibition of human telomerase activity (in words): did not detectably inhibit

## PNA (III): complementary PNA, sequence TTAGGGTTAG (all peptide nucleic acid (PNA))
Human telomerase [1]; [3]
  IC50: 200 nM
Human telomerase [1]; [4]
  IC50: 400 nM
Human telomerase [1]; cell extract, 30 min preincubation, read-out: IC50 for inhibition of telomerase
  pIC50: 6.70
Human telomerase [2]
  IC50: 500 nM

## PNA (X): complementary PNA, sequence GTTAGGGTTAGAC (antisense; all peptide nucleic acid (PNA))
Human telomerase [1]; 25° C., 30 min preincubation, listed as PNA X, read-out: IC50 (nM) Cell Extract 25° C.
  IC50: ~10 nM
Human telomerase [1]; [3]
  IC50: 10 nM

## PS (V): non-complementary phosphorothioate oligonucleotide TGTAAGGAACTAG (all phosphorothioate, sugars by position and methylation of C not given here) [reference compound]
Human telomerase [1]; [3]
  IC50: 100 nM
Human telomerase [1]; [4]
  IC50: 450 nM

## PNA (XI): complementary PNA, sequence GGGTTAGACAA (all peptide nucleic acid (PNA))
Human telomerase [1]; 25° C., 30 min preincubation, listed as PNA XI, read-out: IC50 (nM) Cell Extract 25° C.
  IC50: ~10 nM
Human telomerase [1]; [3]
  IC50: 10 nM
Human telomerase [1]; [4]
  IC50: 50 nM
Human telomerase [2]
  IC50: 70 nM

## PNA (IX): complementary PNA, sequence TAGGGTTAGAC (all peptide nucleic acid (PNA))
Human telomerase [1]; 25° C., 30 min preincubation, listed as PNA IX, read-out: IC50 (nM) Cell Extract 25° C.
  IC50: ~10 nM
Human telomerase [1]; [3]
  IC50: 10 nM

## PNA (VI): complementary PNA, sequence CAGTTAGGGTTAG (all peptide nucleic acid (PNA))
Human telomerase [1]; [3]
  IC50: 10 nM
Human telomerase [1]; [4]
  IC50: 50 nM
Human telomerase [2]
  IC50: 75 nM

## PNA (VII): complementary PNA, sequence CTCAGTTAGGGTTAG (all peptide nucleic acid (PNA))
Human telomerase [1]; [4]
  IC50: 70 nM

## PNA (XIV): non-complementary PNA, sequence AGGATCTTCACCTAGATCCT (all peptide nucleic acid (PNA)) [reference compound]
Human telomerase [1]; [3]
  IC50: > 33000 nM
Human telomerase [1]; [4]
  IC50: > 33000 nM
Human telomerase [1]; cell extract
  inhibition of human telomerase activity (in words): did not detectably inhibit

## PS (III): complementary phosphorothioate oligonucleotide TAGGGTTAGACAA (all phosphorothioate, sugars by position and methylation of C not given here) [reference compound]
Human telomerase [1]; [3]
  IC50: 50 nM
Human telomerase [1]; [4]
  IC50: 200 nM

## PNA (XII): complementary PNA, sequence TAGGGTTAGACAA (all peptide nucleic acid (PNA))
Human telomerase [1]; 300 pM PNA
  preincubation time to reach maximal inhibition: ninety
Human telomerase [1]; 200 nM PNA
  preincubation time to reach maximal inhibition: five
Human telomerase [1]; [3]
  IC50: 0.9 nM
Human telomerase [1]; lengthy incubation with primer and nucleotides
  reversibility of inhibition once maximal inhibition attained: effectively irreversible

## PNA (XIII): complementary PNA, sequence GTTAGGGTTAGACAA (all peptide nucleic acid (PNA))
Human telomerase [1]; [4]
  IC50: 50 nM

Reference: US6294650A, “Inhibition of mammalian telomerase by peptide nucleic acids” (The Board of Regents, University of Texas System, priority 1999, dated 2001)
